The values below come from US20230151003A1, “COMPOUNDS AND METHODS OF USE” (Exelixis, Inc., priority 2020, published 2023).

The target in one experiment is T1, Mer (Homo sapiens, UniProt Q12866).
T1 construct: host or cells: 293A cells (Thermo Fisher #R70507)
T1 sequence (Q12866 21-999): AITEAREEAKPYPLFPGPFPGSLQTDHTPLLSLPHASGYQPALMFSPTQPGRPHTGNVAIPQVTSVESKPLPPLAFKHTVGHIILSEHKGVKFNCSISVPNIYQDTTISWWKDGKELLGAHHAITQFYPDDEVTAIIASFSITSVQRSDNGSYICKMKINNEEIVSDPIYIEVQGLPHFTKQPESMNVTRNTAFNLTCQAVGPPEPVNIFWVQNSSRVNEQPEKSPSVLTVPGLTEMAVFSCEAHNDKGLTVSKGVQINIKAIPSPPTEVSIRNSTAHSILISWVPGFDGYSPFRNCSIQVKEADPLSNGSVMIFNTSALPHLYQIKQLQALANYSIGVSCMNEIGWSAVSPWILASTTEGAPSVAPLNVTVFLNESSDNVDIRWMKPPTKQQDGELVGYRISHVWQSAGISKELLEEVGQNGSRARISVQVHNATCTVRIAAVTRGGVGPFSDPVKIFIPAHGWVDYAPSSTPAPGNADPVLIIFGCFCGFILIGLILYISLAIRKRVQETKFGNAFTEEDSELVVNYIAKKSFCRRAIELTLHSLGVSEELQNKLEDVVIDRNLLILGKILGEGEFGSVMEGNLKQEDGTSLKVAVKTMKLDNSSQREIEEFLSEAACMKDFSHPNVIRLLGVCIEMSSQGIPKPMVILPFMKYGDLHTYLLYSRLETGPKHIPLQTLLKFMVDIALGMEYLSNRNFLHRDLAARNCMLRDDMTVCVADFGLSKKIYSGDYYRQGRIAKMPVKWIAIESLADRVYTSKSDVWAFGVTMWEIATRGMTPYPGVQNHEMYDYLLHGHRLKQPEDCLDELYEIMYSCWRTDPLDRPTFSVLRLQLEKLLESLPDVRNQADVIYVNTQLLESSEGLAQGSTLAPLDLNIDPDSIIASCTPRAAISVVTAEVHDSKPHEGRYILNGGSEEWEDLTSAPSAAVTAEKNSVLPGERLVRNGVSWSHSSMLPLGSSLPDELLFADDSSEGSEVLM
Briefly: Mer autophosphorylation ELISA in transient transfected 293A cells. It is filed as cell-based. To be noted: Table 3 Cellular Activities; MERTK-transfected 293A cells, phospho-Mer ELISA. An outline of the steps: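 Phospho-Mer quantified by ELISA in lysates of transiently MERTK-transfected 293A cells after 1 h exposure to an 8-point compound series, serum-free, 0.3% DMSO. Activity normalized between DMSO-treated (100%) and reference inhibitor-treated (0%) lysates; IC50 via 4-parameter nonlinear regression.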

The target of the next experiment is KDR (Homo sapiens, UniProt P35968). The experiment in a line: KDR autophosphorylation ELISA in HUVEC cells. It is filed as cell-based. The arrangement: endogenous in cells; host or cells: HUVEC (Lonza #C2519A). Conditions: Table 3 Cellular Activities, VEGF165-stimulated, phospho-KDR ELISA. The method in brief:
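Inhibition of VEGF165-induced KDR phosphorylation was determined in serum-starved HUVEC after 1 h compound pretreatment and 5 min stimulation with 100 ng/mL VEGF165. Lysate phospho-KDR was measured by ELISA; IC50 values came from a 4-parameter logistic fit of 8-point curves.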

Bounds are passed on as bounds.

KDR, sequence (P35968 20-1356): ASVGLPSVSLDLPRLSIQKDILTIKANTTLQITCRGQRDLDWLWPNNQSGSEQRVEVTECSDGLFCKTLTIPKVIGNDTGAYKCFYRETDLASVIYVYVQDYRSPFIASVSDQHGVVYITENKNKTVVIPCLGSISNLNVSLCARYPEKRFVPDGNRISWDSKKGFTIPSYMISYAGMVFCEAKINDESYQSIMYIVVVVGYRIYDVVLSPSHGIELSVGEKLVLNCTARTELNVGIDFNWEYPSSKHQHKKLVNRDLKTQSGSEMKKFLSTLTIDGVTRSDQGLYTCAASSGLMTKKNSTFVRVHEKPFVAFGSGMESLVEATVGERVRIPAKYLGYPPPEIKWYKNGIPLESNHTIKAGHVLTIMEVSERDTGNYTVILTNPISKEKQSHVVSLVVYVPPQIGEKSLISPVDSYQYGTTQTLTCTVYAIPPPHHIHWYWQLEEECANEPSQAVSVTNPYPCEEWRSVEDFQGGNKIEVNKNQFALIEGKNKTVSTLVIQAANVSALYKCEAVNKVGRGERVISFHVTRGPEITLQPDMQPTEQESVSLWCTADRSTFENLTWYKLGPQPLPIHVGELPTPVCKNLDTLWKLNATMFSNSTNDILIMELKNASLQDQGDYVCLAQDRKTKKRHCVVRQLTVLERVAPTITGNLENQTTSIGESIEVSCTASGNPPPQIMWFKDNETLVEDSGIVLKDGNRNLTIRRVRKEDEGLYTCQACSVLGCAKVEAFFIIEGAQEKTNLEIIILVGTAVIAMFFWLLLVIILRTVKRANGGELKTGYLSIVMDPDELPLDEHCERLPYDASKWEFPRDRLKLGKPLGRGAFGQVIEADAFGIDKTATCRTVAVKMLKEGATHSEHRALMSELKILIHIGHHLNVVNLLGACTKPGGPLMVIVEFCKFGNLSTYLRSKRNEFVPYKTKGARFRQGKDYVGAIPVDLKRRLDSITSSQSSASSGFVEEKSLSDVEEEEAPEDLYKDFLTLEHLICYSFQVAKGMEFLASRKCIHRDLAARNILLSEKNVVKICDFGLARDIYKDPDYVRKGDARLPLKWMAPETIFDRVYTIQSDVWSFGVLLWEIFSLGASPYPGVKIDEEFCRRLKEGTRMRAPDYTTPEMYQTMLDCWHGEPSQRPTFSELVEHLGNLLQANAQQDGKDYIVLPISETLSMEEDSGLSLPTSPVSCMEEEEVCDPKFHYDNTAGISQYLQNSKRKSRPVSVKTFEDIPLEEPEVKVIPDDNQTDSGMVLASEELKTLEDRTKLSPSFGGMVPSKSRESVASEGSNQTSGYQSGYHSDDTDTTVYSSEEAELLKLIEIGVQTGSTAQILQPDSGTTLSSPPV

Consider `COc1cc2nccc(Oc3ccc(NC(=O)c4cnc(C)c(-c5ccco5)c4O)cc3F)c2nc1OC` [Compound 89, N-[4-[(6,7-Dimethoxy-1,5-naphthyridin-4-yl)oxy]-3-fluorophenyl]-5-(furan-2-yl)-4-hydroxy-6-methylpyridine-3-carboxamide], for which the IC50 against Mer and on KDR was ≤ 0.1 µM each time.

Take `CCc1ccc(-c2c(C)nc(C)c(C(=O)Nc3ccc(Oc4ccnc5cc(OC)c(OC)nc45)c(F)c3)c2O)o1` [Compound 147, N-[4-[(6,7-Dimethoxy-1,5-naphthyridin-4-yl)oxy]-3-fluorophenyl]-5-(5-ethylfuran-2-yl)-4-hydroxy-2,6-dimethylpyridine-3-carboxamide]: the IC50 on Mer and against KDR was ≤ 0.1 µM throughout.

With `COc1cc2nccc(Oc3ccc(NC(=O)c4cn(CCF)c(C)c(-c5ccco5)c4=O)cc3F)c2nc1OC` [Compound 333, N-[4-[(6,7-Dimethoxy-1,5-naphthyridin-4-yl)oxy]-3-fluorophenyl]-1-(2-fluoroethyl)-5-(furan-2-yl)-6-methyl-4-oxopyridine-3-carboxamide], the 50% inhibitory concentration (IC50) was ≤ 0.1 µM at Mer and 0.1 to 0.3 µM at KDR.

As to `COc1cnc2c(Oc3ccc(NC(=O)c4cn(CCF)c(C)c(-c5ccsc5)c4=O)cc3F)ccnc2c1` [Compound 330, 1-(2-Fluoroethyl)-N-[3-fluoro-4-[(7-methoxy-1,5-naphthyridin-4-yl)oxy]phenyl]-6-methyl-4-oxo-5-thiophen-3-ylpyridine-3-carboxamide], the half-inhibitory concentration (IC50) on Mer is ≤ 0.1 µM; at KDR, 0.3 to 1 µM.

As for `COc1cc2nccc(Oc3ccc(NC(=O)c4c(C)n(C)c(C)c(-c5ccco5)c4=O)cc3F)c2nc1OC` [Compound 160, N-[4-[(6,7-Dimethoxy-1,5-naphthyridin-4-yl)oxy]-3-fluorophenyl]-5-(furan-2-yl)-1,2,6-trimethyl-4-oxopyridine-3-carboxamide], the 50% inhibitory concentration (IC50) against Mer is ≤ 0.1 µM; against KDR, 0.1 to 0.3 µM.

For `COc1cc2nccc(Oc3ccc(NC(=O)c4cnc(C)c(-c5sccc5C)c4O)cc3F)c2nc1OC` [Compound 103, N-[4-[(6,7-Dimethoxy-1,5-naphthyridin-4-yl)oxy]-3-fluoro-phenyl]-4-hydroxy-6-methyl-5-(3-methyl-2-thienyl) pyridine-3-carboxamide], the 50% inhibitory concentration (IC50) at Mer and against KDR was ≤ 0.1 µM in each case.

As for `COc1cc2nccc(Oc3ccc(NC(=O)c4cnc(C)c(-c5ccoc5)c4O)cc3F)c2nc1OC` [Compound 95, N-[4-[(6,7-Dimethoxy-1,5-naphthyridin-4-yl)oxy]-3-fluoro-phenyl]-5-(3-furyl)-4-hydroxy-6-methyl-pyridine-3-carboxamide], the IC50 on Mer and against KDR was ≤ 0.1 µM each time.

`COc1cnc2c(Oc3ccc(NC(=O)c4cnc(C)c(-c5ccc(C)o5)c4O)cc3F)ccnc2c1` [Compound 97, N-[3-Fluoro-4-[(7-methoxy-1,5-naphthyridin-4-yl)oxy]phenyl]-4-hydroxy-6-methyl-5-(5-methyl-2-furyl)pyridine-3-carboxamide]: the IC50 on Mer and against KDR was ≤ 0.1 µM each time.
